The structures appear in SMILES notation.

For orientation: AUC(0-inf) means the area under the concentration-time curve extrapolated to infinity.

A short description of series [1]: Penetration ratio, ratio of AUC in human epithelial lining fluid to fAUC in human plasma at 750 mg administered as single dose. It counts as ADME. As to conditions: in vivo.
Series [2] can be described thus: AUC (0 to infinity) in human epithelial lining fluid at 750 mg administered as single dose. It counts as ADME, tissue-based. Details: dose 750 mg, time infinity.
Series [3] can be described thus: Plasma protein binding in human plasma at 750 mg administered as single dose. In kind it is ADME, organism-based. To be noted: read-out: PPB (converted).

For the compound `CCCCCCCCCCNCCN[C@@]1(C)C[C@H](O[C@H]2[C@H](Oc3c4cc5cc3Oc3ccc(cc3Cl)[C@@H](O)[C@@H](NC(=O)[C@@H](CC(C)C)NC)C(=O)N[C@@H](CC(N)=O)C(=O)N[C@H]5C(=O)N[C@H]3C(=O)N[C@H](C(=O)N[C@H](C(=O)O)c5cc(O)c(CNCP(=O)(O)O)c(O)c5-c5cc3ccc5O)[C@H](O)c3ccc(c(Cl)c3)O4)O[C@H](CO)[C@@H](O)[C@@H]2O)O[C@@H](C)[C@H]1O` [TELAVANCIN], the Ratio in series [1] is given as 1.01. Besides, the AUC(0-inf) in series [2] was 74800 ng·h/mL. Also, the fraction unbound in series [3] is 0.1.

The values above are taken from ChEMBL document CHEMBL1275431, “Telavancin penetration into human epithelial lining fluid determined by population pharmacokinetic modeling and Monte Carlo simulation” (Antimicrob Agents Chemother, 2008).
